Measurements taken from US8076266B2, “Urea phosphite fungicide” (Lidochem, Inc., priority 2004, dated 2011).

Experiments:
[1] = system: Downey Mildew fungus on lettuce; conditions: in vivo
[2] = assay type: physicochemical
Excerpt: […]. 55 grams phosphorous acid crystals were blended with 42 grams urea pills and stirred in a covered container at room temperature. […].

NC(N)=O.OP(O)O [Urea Phosphite]
Downey mildew rating, Mean of 4 Replications [1]: 3.93 | Pathological acerbation [1]: no indication of pathological acerbation | Ranking [1]: 1

Urea Phosphite [Example 4]
Stability of liquid on heating / cooling [2]: stable upon heating to 90 °C and crystals formed upon cooling

potassium phosphite [1 (potassium phosphite)]
Downey mildew rating, Mean of 4 Replications [1]: 4.62 | Ranking [1]: 3

potassium phosphite [2 (potassium phosphite)]
Downey mildew rating, Mean of 4 Replications [1]: 4.81 | Ranking [1]: 4

urea phosphite [Example 2]
Stability of liquid on heating / cooling [2]: stable upon heating to 90 °C or cooling to 0 °C
